Key:
[1] = system: Patients suffering from diabetic neuropathic pain; experiment: Clinical study in human diabetic neuropathic pain patients (double-blind, placebo-controlled, 112 days); assay type: in vivo; details: 1800 mg/day total dosage
Experimental: FIG. 1 depicts the average VAS score (y-axis) during the last week of treatment of the clinical study described in Example 1. The darker area represents the scores obtained in the group of patients obtaining oxcarbazepine at a daily dosage of 1800 mg (N=68). The brighter area represents the score for the placebo group (N=76). FIG. 2 illustrates the average VAS score (y-axis) by week (x-axis) of the clinical study described in Example 1. The upper lines represents the score for the placebo group (N=76). The lower line represents the scores obtained in the group of patients obtaining oxcarbazepine at a daily dosage of 1800 mg (N=68). In a clinical study in a Caucasian patient population, a full double-blind treatment was conducted for a period of 112 days. Patients suffering from diabetic neuropathic pain obtained placebo or oxcarbazepine.

[2] = system: patients with neuropathic pain of diabetic origin; experiment: Impact of oxcarbazepine on sleep in human diabetic neuropathic pain patients (daily sleep questionnaire); assay type: in vivo; details: up to 1800 mg/day; for Awaken from sleep, % days during double-blind phase, mean (SD): P 0.02 vs placebo
Experimental: In a multicenter, placebo-controlled, double-blind, parallel-group study the efficacy of oxcarbazepine up to 1800 mg/day in patients with neuropathic pain of diabetic origin was evaluated. The study consisted of three phases: a pre-randomization screening phase (2 weeks); a double-blind treatment phase (18 weeks); and an open-label extension phase (52 weeks). The double-blind treatment phase was further divided into a titration period of 4 weeks, a maintenance period of 12 weeks, and a follow-up period of 2 weeks. Patients who met all inclusion criteria were randomized in a 1:1 ratio to receive either study medication or placebo during double-blind treatment (16 weeks). After randomization into the double-blind treatment phase, oxcarbazepine or placebo was initiated at 300 mg/day, and increased 3 days later to 300 mg twice a day (600 mg/day). After this, oxcarbazepine was titrated as tolerated up to a maximum target dose of 900 mg twice a day (1800 mg/day) in increments of 300 mg every 5 days over the 4-week titration period. During the remaining 12 weeks of the study (maintenance period), oxcarbazepine treatment remained at the dose reached by day 28. Patient response to the following three questions from the daily sleep questionnaire were used to assess disturbances of sleep over double-blind treatment: 1) Did your pain delay you in getting to sleep last night? 2) Did your pain awaken you from sleep more than one time last night? 3) Did you feel rested after sleep this morning?

[3] = difference did not achieve statistical significance

NC(=O)N1c2ccccc2CC(=O)c2ccccc21 [Oxcarbazepine, 10-oxo-10, 11-dihydro-5H-dibenz[b,f]azepine-5-carboxamide]
average Visual Analog Scale (VAS) for pain severity score during the last week of double-blind treatment, versus placebo ([1]; Caucasian patient population, 112 days double-blind, p=0.0108): statistically significantly superior to placebo
percentage of responders (those felt slightly, much, or very much improved) ([1]; placebo group 39.7%, p=0.0003): 73.2%
Awaken from sleep, % days during double-blind phase, mean (SD) ([2]; ITT population, n = 68): 31 (29) % days
Awaken from sleep, % days during double-blind phase, mean (SD) ([2]; ITT population, n = 68, listed as oxcarbazepine): 31 % days
Delayed getting to sleep, % days during double-blind phase, mean (SD) ([2]; ITT population, n = 68, P 0.09 vs placebo): 28 (31) % days
Felt rested after sleep, % days during double-blind phase, mean (SD) ([2]; ITT population, n = 68, P 0.17 vs placebo): 55 (34) % days
proportion of patients experiencing delays in getting to sleep, in comparison with placebo [2, 3]: lower proportion
proportion of patients who felt rested after sleep, in comparison with placebo [2, 3]: greater proportion

— US20060270658A1, “Use of oxcarbazepine for the treatment of diabetic neuropathic pain and the improvement of sleep” (priority 2003, published 2006)
